Reference: patent publication US20230132582A1, “NOVEL USE OF ASPIRIN COMPOUND IN INCREASING NUCLEIC ACID EXPRESSION” (priority 2020, published 2023)

How the values were obtained:
[1] = system: IDS enzyme activity in brain (AAV9-CB-IDS); assay: IDS enzyme activity in brain of MPSII mice after AAV9-CB-IDS with aspirin pre-treatment (Example 7); format: in vivo, B6N.Cg-Ids^tm1Muen/J mice (MPSII model)
Method: The effects of aspirin on improving the expression of therapeutic transgene in brain were determined. AAV9-CB-IDS vector were produced using methods described in Example 1, except that iduronate 2-sulfatase (IDS) gene expression cassette was inserted between the AAV ITRs. The gene encoding IDS was provided in SEQ ID NO: 7 and the protein sequence of IDS was provided in SEQ ID NO: 11. […] A group of wild-type control mice was used as control. The AAV9-CB-IDS vector for treating MPSII was administrated as described in Example 1, at a dose of 3×10^13 vg/kg (i.e. 3E13 group) or 1×10^14 vg/kg (i.e. 1E14 group) to mice pre-treated with aspirin injection. One month after the AAV9-CB-IDS injection, the IDS enzyme activity was detected in brain (FIG. 8).

IFN-α [2] = assay: Serum IFN-α ELISA after AAV8, AAV9 or AAV843 injection in aspirin-treated mice (Example 4); format: in vivo, C57BL/6J mice
Method: (§1) Blood samples of mice were collected by retro-orbital bleeding. Half of the volume of blood samples was added with sodium citrate at a ratio of 1:9 for anticoagulation, mixed, centrifuged within 30 minutes (6000 rpm, 5 mins), and the supernatant was collected as the mouse plasma, for detection of the expression of Gluc. The remaining blood sample was left at room temperature for 2 hours to separate the serum, centrifuged at 6000 rpm for 15 min, and the supernatant was collected as the mouse serum sample. The contents of IFN-α and IFN-β were determined by using Mouse IFN-β ELISA kit (720131-2, Shanghai Mlbio Co., Ltd.), LEGEND MAX™ Mouse IFN-β ELISA Kit (439407, BioLegend), and Mouse IFN-α ELISA kit (706291-2, Shanghai Mlbio Co., Ltd.).
(§2) The injection dose of 50 mg/kg aspirin was used in further study of AAV-mediated expression of exogenous genes by three different AAV serotypes. The study design was similar to that of Example 2. Briefly, for each AAV serotype (i.e., AAV8-Lxp3.3-Gluc, AAV9-Lxp3.3-Gluc, or AAV843-Lxp3.3-Gluc), male C57BL/6J mice (purchased from Shanghai Jiesijie Experimental Animals Co., Ltd.) (n=4) with an average weight of 20 g were divided into two groups. One group was injected with aspirin at 50 mg/kg for 7 consecutive days, and the other group was injected with 5% castor oil (in PBS buffer (catalogue number: 02-024-1ACS, BI)) as a control. On Day 8, 5×10^12 vg/kg of AAV8-Lxp3.3-Gluc, AAV9-Lxp3.3-Gluc, or AAV843-Lxp3.3-Gluc virus (diluted in 150-200 μl PBS) was delivered to each mouse by tail vein injection. Blood sample were collected and expression level of luciferase was detected following the same methods as described in Example 2.
(§3) In the study described in Example 3, the level of IFN-α and IFN-β were determined by using Mouse IFN-β ELISA kit (720131-2, Shanghai Mlbio Co., Ltd.), LEGEND MAX™ Mouse IFN-β ELISA Kit (439407, BioLegend), and Mouse IFN-α ELISA kit (706291-2, Shanghai Mlbio Co., Ltd.) according to the user's manual.

[3] = system: expression of luciferase from AAV8-Lxp3.3-Gluc; assay: Luciferase expression after AAV8-Lxp3.3-Gluc injection in aspirin-treated mice (Example 3); format: in vivo, C57BL/6J mice
Method: as §1
(§4) Coelenterazine h (40906ES02, Shanghai Yeasen Biotech Co., Ltd.) buffer was prepared first: to 500 mL of ultra-pure water was added 29.72 g of sodium ascorbate, and then 50 mL of Tris-HCl (1 mol/L, pH 7.4). […] of the above working solution is added to a […], and the relative light unit (RLU) was detected with a Synergy H1 multifunctional microplate reader.
(§5) The injection dose of 50 mg/kg aspirin was used in further study of AAV-mediated expression of exogenous genes by three different AAV serotypes. […] Blood sample were collected and expression level of luciferase was detected following the same methods as described in Example 2.

IFN-β = assay: Serum IFN-β ELISA after AAV8, AAV9 or AAV843 injection in aspirin-treated mice (Example 4); format: in vivo, C57BL/6J mice
Method: as §1, §2, §3

[4] = system: expression of luciferase from AAV9-Lxp3.3-Gluc; assay: Luciferase expression after AAV9-Lxp3.3-Gluc injection in aspirin-treated mice (Example 3); format: in vivo, C57BL/6J mice
Method: as §1, §4, §5

IFN-α [5] = assay: Serum IFN-α ELISA after AAV9 injection with aspirin at different doses (Example 2); format: in vivo, C57BL/6J mice; details: Day 3 post AAV9 injection, vs control group (FIG. 2)
Method: (§6) Male C57BL/6J mice (purchased from Shanghai Jiesijie Experimental Animals Co., Ltd.) (n=4) with an average weight of 20 g were divided into six groups. Aspirin was used for intraperitoneal injection for 7 consecutive days (Day −7 to Day −1), at doses of 1 mg/kg, 15 mg/kg, 30 mg/kg, 50 mg/kg, 100 mg/kg, respectively, to five groups of mice. The sixth group was injected with 5% castor oil (in PBS buffer (catalogue number: 02-024-1ACS, BI)) as a control. On Day 0, AAV9-Lxp3.3-Gluc virus was injected intravenously (5×10^12 vg/kg) to each mouse in every group, and expression of luciferase was detected from Day 1 onwards.
as §1

[6] = system: expression of luciferase from AAV9-Lxp3.3-Gluc virus; assay: AAV9-mediated luciferase (Gluc) expression in plasma of mice pre-treated with aspirin at different doses (Example 2); format: in vivo, C57BL/6J mice
Method: as §6
Blood samples of mice were collected by retro-orbital bleeding. […] The contents of IFN-α and IFN-β were determined by using Mouse IFN-β ELISA kit (720131-2, Shanghai Mlbio Co., Ltd.), LEGEND MAX™ Mouse IFN-β ELISA Kit (439407, BioLegend), and Mouse IFN-α ELISA kit (706291-2, Shanghai Mlbio Co., Ltd.).
as §4

[7] = system: Gluc expression from AAV9-CB-Gluc in brain; assay: Gluc mRNA and enzymatic activity in brain after AAV9-CB-Gluc with aspirin (Example 6); format: in vivo, mice; details: for enzymatic activity level of Gluc, up-regulation vs non-treatment group: p<0.01 (FIG. 7B)
Method: (§7) Expression of exogenous gene was detected in mice either pre-treated with Aspirin, or co-administered with Aspirin. AAV9-CB-Gluc was prepared according to methods provided in Example 1, except that nucleic acid sequence for CB promoter (see SEQ ID NO: 3) was used. In brief, Aspirin was pre-administrated to a group of mice at 50 mg/kg by intraperitoneal injection for 7 days, followed by administration of AAV9-CB-Gluc (5×10^13 vg/kg) at day 8. In comparison, a group of mice without pre-administration of Aspirin was administrated with Aspirin at 50 mg/kg simultaneously in combination with AAV9-CB-Gluc. 15 days after the AAV9-CB-Gluc administration, the mice were sacrificed, and brain and liver were collected for determination of expression Gluc.

[8] = system: Gluc expression from AAV9-CB-Gluc in liver; assay: Gluc mRNA and enzymatic activity in liver after AAV9-CB-Gluc with aspirin (Example 6); format: in vivo, mice
Method: as §7

[9] = system: expression of luciferase from AAV843-Lxp3.3-Gluc; assay: Luciferase expression after AAV843-Lxp3.3-Gluc injection in aspirin-treated mice (Example 3); format: in vivo, C57BL/6J mice
Method: as §1, §4, §5

[10] = system: expression level of the transgene (AAV); assay: Co-administration of AAV and aspirin, transgene expression (preliminary); format: in vivo; details: co-administration of AAV and aspirin in one formulation or separate formulations at the same time; preliminary results
Excerpt: Studies have been conducted for co-administration of AAV and aspirin either in one formulation or in separate formulations but at the same time.

## CC(=O)Oc1ccccc1C(=O)O [aspirin, Acetylsalicylic acid]
[1]; aspirin pre-treatment (50 mg/kg) + AAV9-CB-IDS 3×10^13 vg/kg, one month after injection (FIG. 8)
  IDS enzyme activity in brain vs wild type mice group: even higher than that of the wild type mice group
[1]; aspirin pre-treatment + AAV9-CB-IDS 3×10^13 vg/kg vs AAV9-CB-IDS alone at 3×10^13 vg/kg (p<0.05) or 10^14 vg/kg, one month (FIG. 8)
  IDS enzyme activity in brain vs group receiving no aspirin but only AAV9-CB-IDS: significantly higher
IFN-α [2]; after AAV8 injection, aspirin 50 mg/kg 7 days, control significantly higher except Day 31 (FIG. 4A)
  IFN-α level: maintained at a relatively low level
IFN-α [2]; after AAV9 injection, aspirin 50 mg/kg 7 days, vs control group (FIG. 5A)
  IFN-α level: significantly lower than that in the control group
IFN-α [2]; after AAV843 injection, Day 31, aspirin treatment vs control group (FIG. 6A)
  IFN-α level: no significant difference
IFN-α [2]; after AAV843 injection, aspirin 50 mg/kg 7 days, vs control group, before Day 31 (FIG. 6A)
  IFN-α level: significantly lower than those in the control group
[3]; aspirin 50 mg/kg 7 consecutive days, AAV8-Lxp3.3-Gluc 5×10^12 vg/kg tail vein, vs control (FIG. 3A)
  transduction in vivo (expression of luciferase): remarkably promote
[3]; aspirin 50 mg/kg 7 days, AAV8-Lxp3.3-Gluc, control groups also peaked on Day 15
  day of peak expression of luciferase after AAV injection: 15 days
IFN-β; after AAV8 injection, aspirin 50 mg/kg 7 days (FIG. 4B)
  IFN-β level in the control group versus the aspirin treatment group: always significantly higher than that in the aspirin treatment group
IFN-β; after AAV9 injection, aspirin 50 mg/kg 7 days, Day 1 to Day 31, significantly different from control Day 1 to Day 23 (FIG. 5B)
  IFN-β level: maintained at a low level
IFN-β; after AAV843 injection, Day 31, aspirin treatment vs control group (FIG. 6B)
  IFN-β level: no significant difference
IFN-β; after AAV843 injection, aspirin 50 mg/kg 7 days, vs control group, before Day 31 (FIG. 6B)
  IFN-β level: significantly lower than those in the control group
[4]; aspirin 50 mg/kg 7 consecutive days, AAV9-Lxp3.3-Gluc 5×10^12 vg/kg tail vein, vs control (FIG. 3B)
  transduction in vivo (expression of luciferase): remarkably promote
[4]; aspirin 50 mg/kg 7 days, AAV9-Lxp3.3-Gluc, control groups also peaked on Day 15
  day of peak expression of luciferase after AAV injection: 15 days
IFN-α [5]; aspirin 50 mg/kg
  level of IFN-α on Day 3: significantly lower
IFN-α [5]; aspirin 100 mg/kg
  level of IFN-α on Day 3: significantly lower
[6]; 100 mg/kg of aspirin i.p. 7 days before AAV9-Lxp3.3-Gluc 5×10^12 vg/kg i.v., compared with other doses (FIG. 1)
  expression level of luciferase: highest expression level
[6]; aspirin i.p. 7 consecutive days at 1, 15, 30, 50, 100 mg/kg before AAV9-Lxp3.3-Gluc 5×10^12 vg/kg i.v., comparison across dose groups (FIG. 1)
  expression level of luciferase: dose dependent increase
[7]; aspirin 50 mg/kg simultaneously with AAV9-CB-Gluc, 15 days after AAV (FIG. 7A)
  mRNA level of Gluc, up-regulation vs non-treatment group: 2.95 fold
[7]; aspirin 50 mg/kg simultaneously with AAV9-CB-Gluc, 15 days after AAV
  enzymatic activity level of Gluc, up-regulation vs non-treatment group: 3.55 fold
[7]; pre-injection of aspirin 50 mg/kg i.p. 7 days, AAV9-CB-Gluc 5×10^13 vg/kg day 8, 15 days after AAV, p<0.01 (FIG. 7A)
  mRNA level of Gluc, up-regulation vs non-treatment group: 5.5 fold
[7]; pre-injection of aspirin 50 mg/kg i.p. 7 days, AAV9-CB-Gluc 5×10^13 vg/kg day 8, 15 days after AAV
  enzymatic activity level of Gluc, up-regulation vs non-treatment group: 7.13 fold
[8]; aspirin 50 mg/kg simultaneously with AAV9-CB-Gluc (FIG. 7C)
  mRNA level of Gluc vs non-treatment group: even lower than that of the non-treatment group
[8]; aspirin 50 mg/kg simultaneously with AAV9-CB-Gluc (FIG. 7D)
  level of enzymatic activity of Gluc vs non-treatment group: not significantly different
[8]; pre-injection of aspirin 50 mg/kg i.p. 7 days, AAV9-CB-Gluc 5×10^13 vg/kg, p<0.01 (FIG. 7D)
  level of enzymatic activity of Gluc, up-regulation vs non-treatment group: 1.95 fold
[8]; pre-injection of aspirin 50 mg/kg i.p. 7 days, AAV9-CB-Gluc 5×10^13 vg/kg, p<0.05 (FIG. 7C)
  level of mRNA of Gluc, up-regulation vs non-treatment group: 1.43 fold
[9]; aspirin 50 mg/kg 7 consecutive days, AAV843-Lxp3.3-Gluc 5×10^12 vg/kg tail vein, vs control (FIG. 3C)
  transduction in vivo (expression of luciferase): remarkably promote
[9]; aspirin 50 mg/kg 7 days, AAV843-Lxp3.3-Gluc, control groups also peaked on Day 15
  day of peak expression of luciferase after AAV injection: 15 days
[10]
  expression level of the transgene: increase the expression level of the transgene
